Experiments:
Type in all cases: cell-based, human
Aβ42 = Aβ42 in FAD1 iPS cell-derived nerve cells (primary/secondary screening, dose dependency); details: secondary screening, FAD1 iPS cell-derived nerve cells, numerical value (Aβ change rate)
Text: (§1) To perform induction from iPS cells to the cerebral cortex nerve early and with high reproducibility, iPS cells introduced with human Neurogenin 2 gene (NGN2) linked to doxycycline-inducible promoter by using PiggyBac were used (FIG. 1a, FIG. 1b, FIG. 4a and FIG. 4b). IPS cells prepared from 4 patients with familial Alzheimer's disease (FAD), 2 patients with sporadic Alzheimer's disease (SAD) and 4 healthy individuals (HC) were used. The iPS cells were established by the method described in Okita K et al., Nature.
(§2) Structural formulas (those in the form of salt or halide are also described as free form) and the general names of the candidate compounds are shown in Table 1.
(§3) To further study reproducibility of the candidate drugs obtained by the primary screening, secondary screening was conducted. In addition to Aβ40, Aβ42, Aβ42/40 ratio, Aβ38, Aβ43, sAPPα, sAPPβ were also studied and each numerical value was obtained.

Aβ42/40 ratio = Aβ42/40 ratio in FAD1 iPS cell-derived nerve cells (primary/secondary screening, dose dependency); details: secondary screening
Text: as §1, §2, §3

Aβ38 = Aβ38 in FAD1 iPS cell-derived nerve cells (secondary screening); parameters: scale not given here
Protocol: as §3

Aβ43 = Aβ43 in FAD1 iPS cell-derived nerve cells (secondary screening); parameters: scale not given here
Protocol: as §3

sAPPα = sAPPα in FAD1 iPS cell-derived nerve cells (secondary screening); parameters: scale not given here; details: secondary screening, FAD1 iPS cell-derived nerve cells
Protocol: as §3

sAPPβ = sAPPβ in FAD1 iPS cell-derived nerve cells (secondary screening); parameters: sAPPβ: scale not given here; details: secondary screening, FAD1 iPS cell-derived nerve cells
Protocol: as §3

Row | SMILES | Aβ42 (Aβ42) | Ratio Aβ42/40 (Aβ42/40 ratio) | Aβ38 (Aβ38) | Aβ43 (Aβ43) | sAPPα (sAPPα) | sAPPβ (sAPPβ)
1 | CCCCC(=O)N(Cc1ccc(-c2ccccc2-c2nn[nH]n2)cc1)[C@H](C(=O)O)C(C)C [compound 48] | 0.97 | 0.9 | 1.14 | 1 | 1.14 | 1.13
2 | CC(C)(C)NCC(O)c1cc(Cl)c(N)c(Cl)c1 (stereo not drawn) [compound 85, CLENBUTEROL] | 0.88 | 0.85 | 1.17 | 0.94 | 0.86 | 0.84
3 | COc1ccc(C(=O)c2ccccc2O)c(O)c1 [compound 54, DIOXYBENZONE] | 0.93 | 1.02 | 1.16 | 0.83 | 0.72 | 0.75
4 | Cc1cc2cc3c(C)cc(=O)oc3c(C)c2o1 [compound 91, TRIOXSALEN] | 0.84 | 0.95 | 0.97 | 1.01 | 0.82 | 1.02
5 | CC(=O)OC1CCC2(C)C(=CCC3C4CCC(=O)C4(C)CCC32)C1 (stereo not drawn) [compound 109, PRASTERONE ACETATE] | 0.68 | 0.7 | 0.9 | 0.85 | 0.69 | 0.55
6 | CCN(CC)CCOC(=O)C1(C2CCCCC2)CCCCC1 [compound 104, DICYCLOMINE] | 0.93 |  | 1.08 | 0.82 | 0.81 | 0.84
7 | c1ccc2[nH]c(-c3cscn3)nc2c1 [compound 20, THIABENDAZOLE] | 0.84 | 0.88 | 1.05 | 0.79 | 0.79 | 0.67
8 | NCCc1cnc[nH]1 [compound 121, HISTAMINE] | 1.02 | 1.09 | 1.22 | 1.23 | 1.08 | 1.15
9 | CN1C(=O)CCS(=O)(=O)C1c1ccc(Cl)cc1 (stereo not drawn) [compound 128, CHLORMEZANONE] | 0.86 | 0.78 | 1.05 | 0.85 | 0.85 | 0.72
10 | CCN(CC)CCNC(C(=O)OCCC(C)C)c1ccccc1 (stereo not drawn) [compound 33, CAMYLOFINE] | 0.9 | 0.85 | 1.12 | 0.88 | 0.89 | 0.71
11 | CC(=O)Nc1cccc(O)c1 [compound 93, METACETAMOL] | 0.77 | 0.86 | 0.95 | 0.74 | 0.83 | 0.89
12 | Cn1c(=O)c2[nH]c(Cl)nc2n(C)c1=O [compound 124, 8-chlorotheophylline] | 0.98 | 1.01 | 1.06 | 0.97 | 0.97 | 1.02
13 | C#C[C@]1(O)CC[C@H]2[C@@H]3CCC4=Cc5oncc5C[C@]4(C)[C@H]3CC[C@@]21C [compound 102, DANAZOL] | 0.93 | 1.04 | 1.02 | 1.07 | 0.79 | 0.81
14 | O=C(CCNNC(=O)c1ccncc1)NCc1ccccc1 [compound 34, NIALAMIDE] | 0.92 | 0.87 | 1.16 | 0.97 | 0.92 | 1.13
15 | CCN(CC)C(=S)SSC(=S)N(CC)CC [compound 112] | 0.91 | 0.97 | 1.1 | 0.98 | 0.78 | 0.89
16 | COc1cc(NC(C)CCCN)c2ncccc2c1 (stereo not drawn) [compound 77, PRIMAQUINE] | 0.87 | 0.95 | 1.07 | 0.89 | 0.79 | 0.85
17 | CCN(CCCc1ccccc1)CCCc1ccccc1 [compound 7, ALVERINE] | 0.86 | 0.93 | 0.94 | 0.79 | 0.78 | 0.63
18 | CN1CCN(C2=Nc3ccccc3Oc3ccc(Cl)cc32)CC1 [compound 25, LOXAPINE] | 0.94 | 0.98 | 1.11 | 1.14 | 1.15 | 1.11

Row | SMILES | Aβ42 (Aβ42) | Ratio Aβ42/40 (Aβ42/40 ratio) | Aβ38 (Aβ38) | Aβ43 (Aβ43) | sAPPα (sAPPα) | sAPPβ (sAPPβ)
19 | CC(C)(Sc1cc(C(C)(C)C)c(O)c(C(C)(C)C)c1)Sc1cc(C(C)(C)C)c(O)c(C(C)(C)C)c1 [compound 96, PROBUCOL] | 0.6 | 0.7 | 0.75 | 0.65 | 1 | 1.07
20 | CCCCCCCCCCCCCCCCCCCCCCO [compound 111, DOCOSANOL] | 0.86 | 0.9 | 1.03 | 0.83 | 0.79 | 0.83
21 | OC1CCCCC1N1CCC(c2ccccc2)CC1 (stereo not drawn) [compound 22, VESAMICOL] | 0.9 | 0.97 | 1 | 0.87 | 0.89 | 0.74
22 | CN(C)C(=O)C(CCN1CCC(O)(c2ccc(Cl)cc2)CC1)(c1ccccc1)c1ccccc1 [compound 6, LOPERAMIDE] | 0.88 | 0.93 | 1.03 | 0.88 | 0.89 | 0.78
23 | CN(C)CCCN1c2ccccc2CCc2ccccc21 [compound 17, IMIPRAMINE] |  |  | 1.12 | 1.27 |  | 1.2
24 | Cc1cccc(C)c1NC(=O)C1CCCCN1C (stereo not drawn) [compound 2, MEPIVACAINE] | 0.9 | 0.93 | 1.01 | 0.83 | 0.77 | 0.88
25 | Cc1cccc(O)c1 [compound 89, CRESOL] | 0.81 | 0.91 | 0.93 | 0.89 | 0.71 | 0.58
26 | O=C1CCc2cc(OCCCCc3nnnn3C3CCCCC3)ccc2N1 [compound 107, CILOSTAZOL] | 0.85 | 0.86 | 1.01 | 0.82 | 0.78 | 0.68
27 | CC1CC(OC(=O)C(O)c2ccccc2)CC(C)(C)C1 (stereo not drawn) [compound 40, CYCLANDELATE] | 0.88 | 0.8 | 1.09 | 0.98 | 0.92 | 0.84
28 | C[C@@H]1O[C@@H](OC[C@H]2O[C@@H](Oc3c(-c4ccc(OCCO)c(OCCO)c4)oc4cc(OCCO)cc(O)c4c3=O)[C@H](O)[C@@H](O)[C@@H]2O)[C@H](O)[C@H](O)[C@H]1O [compound 110, TROXERUTIN] | 0.88 | 0.93 | 0.97 | 0.95 | 0.74 | 0.51
29 | COc1ccc(CN2CCNCC2)c(OC)c1OC [compound 84, TRIMETAZIDINE] | 1.01 | 0.93 | 1.04 | 1.09 | 1.15 | 1.04
30 | CCN(CC)CCNC(=O)c1cc(Br)c(N)cc1OC [compound 86, BROMOPRIDE] | 0.84 | 0.84 | 1.07 | 0.9 | 1 | 0.85
31 | COc1cc2nc(N(C)CCCNC(=O)C3CCCO3)nc(N)c2cc1OC (stereo not drawn) [compound 81, ALFLUZOSIN] | 0.96 | 0.87 | 1.22 | 1.03 | 0.9 | 0.97
32 | O=C(O)COCCN1CCN([C@H](c2ccccc2)c2ccc(Cl)cc2)CC1 [compound 30, LEVOCETIRIZINE] | 0.76 |  | 0.98 | 0.85 | 0.93 | 0.93
33 | CNCCCN1c2ccccc2CCc2ccccc21 [compound 13, DESIPRAMINE] | 0.94 |  |  | 0.9 | 0.83 | 1.01
34 | CN(C)CCOC(c1ccccc1)c1ccccc1 [compound 14, diphenhydramine] | 0.98 |  | 1.06 | 0.97 | 0.97 | 1.02
35 | CN1[C@@H]2CC[C@@H]1CC(OC(=O)C(O)c1ccccc1)C2 (stereo partly drawn) [compound 16, HOMATROPINE] | 1.04 |  | 1.22 | 1.09 | 1.15 | 1.24

From patent US11026942B2, “Agent for preventing and/or treating Alzheimer's disease” (KYOTO UNIVERSITY, priority 2015, dated 2021)
